We go through six compounds from patent publication US10144745B2, “Chimeric compounds targeting proteins, compositions, methods, and uses thereof” (BioTheryX, Inc., priority 2016, dated 2018).

Broadly, the pIC50 is the IC50 on a negative log10 scale, so that one unit is a factor of ten. Low readings indicate a high IC50, high ones a low IC50.

SMILES strings stand for the structures. pIC50: −log10 of the molar value.

One assay concerns Daudi cells. The experiment in a line: Daudi Cell Proliferation (WST-1 cell viability). In kind it is cell-based. The conditions noted are these: Homo sapiens, 96 h; Daudi cells (Burkitt lymphoma cell line), treated for 4 days, viability by WST-1 relative to vehicle control. As for the experimental part:
Daudi cells, a Burkitt lymphoma cell line, was treated for 4 days with the indicated compound (10 nM, 100 nM, 1 μM, 10 μM, and 100 μM) or vehicle (DMSO), and cell viability was determined using the WST-1 tetrazolium reagent (Roche), and results were expressed as the percentage viability relative to the vehicle control, which was set at 100%. Based on resulting data, an IC50 was calculated for each compound.
IC50 values less than or equal to 2 μM are represented by “A;” IC50 values greater than 2 μM and less than or equal to 30 μM are represented by “B;” and IC50 values greater than 30 μM are represented by “C.”

The next assay deals with T1, FGFR (G697C) (Homo sapiens, UniProt P22607, G697C).
T1 construct: made in house
T1 sequence (P22607 23-806 G697C): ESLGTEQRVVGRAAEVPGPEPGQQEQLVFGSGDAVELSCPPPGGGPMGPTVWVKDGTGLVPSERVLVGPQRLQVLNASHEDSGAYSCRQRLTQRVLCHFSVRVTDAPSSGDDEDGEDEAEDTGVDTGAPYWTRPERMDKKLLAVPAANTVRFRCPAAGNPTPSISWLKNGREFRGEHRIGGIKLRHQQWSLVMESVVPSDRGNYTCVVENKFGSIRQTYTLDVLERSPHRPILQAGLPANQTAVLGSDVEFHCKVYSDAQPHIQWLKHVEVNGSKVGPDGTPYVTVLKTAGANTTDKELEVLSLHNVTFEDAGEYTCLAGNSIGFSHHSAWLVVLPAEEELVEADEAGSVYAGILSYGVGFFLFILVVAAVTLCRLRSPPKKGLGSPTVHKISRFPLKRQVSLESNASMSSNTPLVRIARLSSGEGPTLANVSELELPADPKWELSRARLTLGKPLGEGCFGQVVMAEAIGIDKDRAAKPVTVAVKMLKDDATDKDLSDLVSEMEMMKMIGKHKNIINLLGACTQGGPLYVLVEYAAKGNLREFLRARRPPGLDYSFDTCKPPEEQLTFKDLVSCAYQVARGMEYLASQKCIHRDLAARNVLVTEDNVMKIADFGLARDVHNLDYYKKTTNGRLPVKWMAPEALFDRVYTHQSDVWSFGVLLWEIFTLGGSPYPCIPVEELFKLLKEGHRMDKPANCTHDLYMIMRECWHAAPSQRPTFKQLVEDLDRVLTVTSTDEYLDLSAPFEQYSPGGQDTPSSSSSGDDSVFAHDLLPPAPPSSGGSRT
The experiment in a line: Kinase Inhibition Assay (kinase-tagged phage / affinity bead competition binding, qPCR). The conditions noted are these: Compounds were tested at 500 nM; read-out: FGFR (G697C) (Percent Control). On the procedure: (§1) Kinase-tagged T7 phage strains were grown in parallel in 24-well blocks in an E. coli host derived from the BL21 strain. E. coli were grown to log-phase and infected with T7 phage from a frozen stock (multiplicity of infection=0.4) and incubated with shaking at 32° C. until lysis (90-150 minutes). The lysates were centrifuged (6,000×g) and filtered (0.2 μm) to remove cell debris. The remaining kinases were produced in HEK-293 cells and subsequently tagged with DNA for qPCR detection. Streptavidin-coated magnetic beads were treated with biotinylated small molecule ligands for 30 minutes at room temperature to generate affinity resins for kinase assays. The liganded beads were blocked with excess biotin and washed with blocking buffer (SeaBlock (Pierce), 1% BSA, 0.05% Tween 20, 1 mM DTT) to remove unbound ligand and to reduce non-specific phage binding.
Binding reactions were assembled by combining kinases, liganded affinity beads, and test compounds in 1× binding buffer (20% SeaBlock, 0.17×PBS, 0.05 Tween 20, 6 mM DTT). Test compounds were prepared as 40× stocks in 100% DMSO and directly diluted into the assay. All reactions were performed in polypropylene 384-well plates in a final volume of 0.02 mL. The assay plates were incubated at room temperature with shaking for 1 hour and the affinity beads were washed with wash buffer (1×PBS, 0.05% Tween 20). […]
For orientation: Quantitative PCR measures a nucleic acid by following its amplification.

In another assay the target is T2, FES (Homo sapiens, UniProt P07332).
T2 construct: made in house
T2 sequence (P07332 whole entry, species assumed): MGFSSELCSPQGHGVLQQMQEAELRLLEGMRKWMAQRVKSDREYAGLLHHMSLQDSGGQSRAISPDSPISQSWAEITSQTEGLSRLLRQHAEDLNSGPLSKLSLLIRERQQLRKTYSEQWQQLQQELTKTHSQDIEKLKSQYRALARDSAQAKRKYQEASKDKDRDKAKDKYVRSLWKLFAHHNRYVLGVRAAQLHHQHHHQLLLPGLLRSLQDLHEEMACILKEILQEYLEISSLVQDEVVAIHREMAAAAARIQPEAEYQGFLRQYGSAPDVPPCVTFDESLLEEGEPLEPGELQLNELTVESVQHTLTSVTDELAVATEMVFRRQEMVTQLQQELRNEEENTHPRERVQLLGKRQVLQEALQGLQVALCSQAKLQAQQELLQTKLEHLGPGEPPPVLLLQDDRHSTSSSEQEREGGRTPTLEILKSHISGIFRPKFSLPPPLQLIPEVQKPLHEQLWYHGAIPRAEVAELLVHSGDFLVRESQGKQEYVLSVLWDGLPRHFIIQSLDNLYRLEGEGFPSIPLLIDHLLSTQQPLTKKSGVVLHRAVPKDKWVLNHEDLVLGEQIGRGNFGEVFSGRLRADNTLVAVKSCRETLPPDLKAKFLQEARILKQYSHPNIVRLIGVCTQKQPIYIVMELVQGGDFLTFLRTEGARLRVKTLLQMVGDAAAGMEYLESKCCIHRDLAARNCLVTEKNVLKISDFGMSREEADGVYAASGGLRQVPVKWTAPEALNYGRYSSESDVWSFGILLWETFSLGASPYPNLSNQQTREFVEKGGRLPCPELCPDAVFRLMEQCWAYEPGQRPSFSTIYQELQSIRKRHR
The description is as above. Particulars: Compounds were tested at 500 nM; read-out: FES (Percent Control). As for the experimental part: as §1, with “Streptavidin-coated magnetic beads were treated with biotinylated small molecule ligands for 30 minutes at room temperature to generate affinity resins for kinase assays.” left out
Test compounds were prepared as 40× stocks in 100% DMSO and directly diluted into the assay. […] The kinase concentration in the eluates was measured by qPCR.

The compound `Nc1cccc2c1CN(C1CCC(=O)NC1=O)C2=O` (stereo not shown) [Lenalidomide, reference compound] had a negative logarithm of the IC50 (pIC50) in the assay with Daudi cells of less than 4.52.
On the same count and under the same terms, with `C=C(C)c1cccc2c1CN([C@H]1CCCC(=O)NC1=O)C2=O` [Compound 43, (S)-3-(1-Oxo-4-(prop-1-en-2-yl)isoindolin-2-yl)azepane-2,7-dione] the figure was not below 5.70.
In the case of `Cc1cnc(Nc2ccc(OCCCNCC(=O)Nc3cccc4c3CN([C@H]3CCCC(=O)NC3=O)C4=O)cc2)nc1Nc1cccc(S(=O)(=O)NC(C)(C)C)c1` [Compound 66, (S)-2-((3-(4-((4-((3-(N-(tert-Butyl)sulfamoyl)phenyl)amino)-5-methylpyrimidin-2-yl)amino)phenoxy)propyl)amino)-N-(2-(2,7-dioxoazepan-3-yl)-1-oxoisoindolin-4-yl)acetamide], the figures for the remaining binding at 0.5 µM on FGFR (G697C) and at FES were 4.8% and 15%, respectively.
Regarding `Cc1cnc(Nc2ccc(OCCN3CCCC3)cc2)nc1Nc1cccc(S(=O)(=O)NC(C)(C)C)c1` [Fedratinib, reference compound], the remaining binding at 0.5 µM at FGFR (G697C) worked out at 57%.
In the assay on Daudi cells, `CC(C)c1cccc2c1CN([C@H]1CCCC(=O)NC1=O)C2=O` [Compound 45, (S)-3-(4-Isopropyl-1-oxoisoindolin-2-yl)azepane-2,7-dione] gave a pIC50 of less than 4.52.
Same read-out and setting: with `O=C1CCC[C@H](N2Cc3c(cccc3C(F)F)C2=O)C(=O)N1` [Compound 42, (S)-3-(4-(Difluoromethyl)-1-oxoisoindolin-2-yl)azepane-2,7-dione] the figure was 4.52 to 5.70.
